Results as given in patent US20190029987A1, “DIMETHYL FUMARATE (DMF) FOR PREVENTION OR TREATMENT OF GOUT, ACNE, DIABETES, VITILIGO AND/OR PYODERMA GANGRENOSUM” (UNIVERSITAT ZURICH, priority 2016, published 2019).

How the values were obtained:
Assay type in all cases: cell-based
Nrf2 = Nrf2 stabilisation and nuclear accumulation in human primary keratinocytes (Western blot); conditions: HPKs, 10 μM, FIG. 6E,F; for expression of the other Nrf2 complex proteins Keap1, Cul3, and Rbx1: 1 h; for stabilisation and nuclear accumulation of Nrf2 protein: harvested after 1 h
Experimental: Human primary keratinocytes (HPKs) constitutively express pro-IL-1β and inflammasome proteins.
FIG. 6: Bone marrow (BM) cells were isolated from Nrf2-deficient mice and wt litterfnates and differentiated into dendritic cells (DCs). (A, B) After priming with upLPS overnight, BMDCs were treated with the NLRP3 inflammasome activators nigericin (20 μM), zymosan (20 μg/ml), MSU (150 μg/ml), ATP (5 mM) or transfected with poly(dA:dT) (1 μg/ml) for activation of the AIM2 inflammasome. After 6 h, supernatants were analysed for secretion of IL-1β by (A) ELISA or (B) Western blot. Mock-treated but primed BMDCs were analysed for expression of inflammasome proteins and pro-IL-1β at the (C) mRNA level by qRT-PCR or at the (D) protein level by Western blot. (B, D) Duplicates from two individual mice per genotype are shown (biological replicates). (E-G) HPKs were treated with the Nrf2 activators SFN (10 μM), tBHQ (10 μM), DMF (50 μM) and 15d-PGJ2 (10 μM). After 1 h, the cells were harvested and analysed for expression of the indicated proteins using total cell lysates (E) or cytoplasmic and nuclear lysates (F). Western blots for the nuclear protein lamin NC and the cytoplasmic protein α-tubulin served as controls. Specific bands are marked with an asterisk. (G) Total RNA was isolated after 8 h and qRT-PCR was performed for quantification of expression of the Nrf2 target genes glutamate-cysteine ligase, catalytic subunit (GCLC), glutamate-cysteine ligase, modifier subunit (GCLM), and NAD(P)H dehydrogenase, quinone 1 (N001). (A-G) Representative experiments performed at least three times are shown. […] Mann-Whitney test was performed. […] Mann-Whitney test was performed. *P≤0.05

NLRP3 inflammasome [1] = biological target: T1, NLRP3 inflammasome (Homo sapiens, UniProt Q96P20); experiment: Inflammasome activation by nigericin/MSU in differentiated, primed THP-1 cells (IL-1β ELISA, Western blot); conditions: for accumulation of mature IL-1β in the cells (lysate): THP-1, 10 μM 30 min before nigericin, 2.5 h, FIG. 8D; for IL-1β secretion: THP-1, 10 μM 1 h before 5 μM nigericin or 150 μg/ml MSU, 5 h, FIG. 2B
T1 construct: endogenous in cells
T1 sequence (Q96P20 whole entry): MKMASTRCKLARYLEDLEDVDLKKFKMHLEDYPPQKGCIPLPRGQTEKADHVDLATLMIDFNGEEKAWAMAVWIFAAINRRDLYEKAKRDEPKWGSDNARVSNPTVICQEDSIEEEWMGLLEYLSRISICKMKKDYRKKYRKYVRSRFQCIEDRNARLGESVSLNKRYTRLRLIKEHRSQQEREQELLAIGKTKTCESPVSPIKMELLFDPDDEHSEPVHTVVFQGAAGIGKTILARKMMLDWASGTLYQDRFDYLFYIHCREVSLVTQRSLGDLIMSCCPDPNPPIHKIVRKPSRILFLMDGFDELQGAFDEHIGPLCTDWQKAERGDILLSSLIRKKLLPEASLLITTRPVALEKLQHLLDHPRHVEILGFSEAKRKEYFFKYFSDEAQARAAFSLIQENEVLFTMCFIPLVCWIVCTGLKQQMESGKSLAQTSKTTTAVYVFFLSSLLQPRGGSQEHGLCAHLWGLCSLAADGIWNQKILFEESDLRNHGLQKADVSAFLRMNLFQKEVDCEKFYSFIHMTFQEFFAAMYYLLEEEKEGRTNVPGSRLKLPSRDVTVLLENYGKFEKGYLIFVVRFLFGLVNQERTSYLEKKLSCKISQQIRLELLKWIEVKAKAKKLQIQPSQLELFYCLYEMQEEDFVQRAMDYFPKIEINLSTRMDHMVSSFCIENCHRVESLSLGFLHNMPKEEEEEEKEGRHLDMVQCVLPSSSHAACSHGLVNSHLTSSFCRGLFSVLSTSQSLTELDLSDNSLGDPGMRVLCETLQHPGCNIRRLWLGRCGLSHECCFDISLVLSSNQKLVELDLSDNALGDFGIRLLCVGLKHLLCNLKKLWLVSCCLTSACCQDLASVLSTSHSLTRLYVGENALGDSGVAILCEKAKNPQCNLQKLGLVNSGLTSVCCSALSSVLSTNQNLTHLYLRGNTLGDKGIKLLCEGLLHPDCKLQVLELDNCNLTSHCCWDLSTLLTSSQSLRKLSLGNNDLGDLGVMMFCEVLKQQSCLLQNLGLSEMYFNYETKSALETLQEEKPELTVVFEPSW
Source text: (§1) To determine the effects of Nrf2 activating compounds on inflammasome activation, the inventors treated keratinocytes with different doses of SFN, tBHQ, DMF or 15d-PGJ2 and irradiated the cells with UVB.
(§2) SFN, DMF, 15d-PGJ2, tBHQ, zymosan, ATP, poly(dA:dT), cycloheximide, puromycin, and doxycycline were purchased from Sigma (Munich, Germany), nigericin from Enzo Life Sciences (New York, US-NY), MG132 from Calbiochem (Darmstadt, Germany), and blasticidin from Invivogen (Toulouse, France). Release of IL-1p was determined by ELISA according the instructions of the manufacturer (R&D Systems, Minneapolis, US-MN). MSU crystals were prepared by crystallisation of a supersaturated solution of uric acid under mildly basic conditions. Briefly, uric acid was added to a solution of NaOH, the solution was boiled until the uric acid was dissolved and passed through a filter. NaCl was added and crystallisation was performed at 4° C. Crystals were filtered, then dried using a speedvac, weighted and autoclaved.
(§3) (A) HPKs were treated with the indicated concentrations of the Nrf2 activating compound tBHQ irradiated with UVB 30 min later and harvested after 5 h. ELISA measurements were performed for quantification of IL-1β secretion and Western blots for analysis of expression and activation of the indicated proteins. Specific bands are marked with an asterisk. (B) THP-1 cells were differentiated with PMA (27 nM) for 3 d, primed with upLPS (100 ng/ml) overnight, and 1 h before inflammasome activation (5 μM nigericin, 150 μg/ml MSU) treated with SFN (10 μM), 15-PGJ2 (10 μM) or DMF (50 μM) (15-PG: 15-PGJ2). Cells and supernatants were harvested after 5 h and analysed for inflammasome activation by ELISA measurement of IL-1p and Western blots as indicated. (C) Freshly isolated PBMCs from human blood were primed overnight with upLPS (100 ng/ml) and treated with SFN (10 μM), tBHQ (10 μM), DMF (50 μM) or 15-PGJ2 (10 μM) 1 h before inflammasome activation by nigericin (5 μM). ELISA measurement for secretion of IL-1β as readout for inflammasome activation was performed after 5 h. (D) HPKs or (E) differentiated and primed THP-1 cells were pretreated with cycloheximide (CHX, 30 μg/ml) to block protein synthesis for 1 h before SFN (10 μM) was added to the cells and after an additional hour the inflammasome was activated by (D) irradiation with UVB or (E) treatment with nigericin (5 μM). Cells and supernatants were harvested after (D) 6 h or (E) 3.5 h and analysed for inflammasome activation by Western blot as indicated. (A-E) Representative experiments performed at least three times are shown. Statistics: (A-C) Error bars represent the mean±SD of a representative experiment performed in triplicates. One-way ANOVA was performed. **P≤0.01; ***P≤0.001.
(A-C) HPKs were irradiated with (A) UVB or treated with (B) nigericin (5 μM) and cells and supernatants were harvested at different time points as indicated. Western blots for expression and activation of the indicated proteins. Specific bands are marked with an asterisk. (C) Expression of Nrf2 and Nrf2 target genes was determined by qRT-PCR. (D, E) THP-1 cells were differentiated with PMA (27 nM) for 3 d, primed with upLPS (100 ng/ml) overnight and treated with nigericin (5 μM) or MSU (150 μg/ml). Cells and supernatants were harvested at different time points as indicated and analysed for (D) expression and activation of the proteins as indicated by Western blot and (E) expression of Nrf2 and Nrf2 target genes by qRT-PCR. (F) HPKs were transfected with specific siRNAs as indicated (scr: scrambled, c1: caspase-1, K1; Keap1), 2 d later irradiated with UVB or treated with nigericin (5 μM). Cells were harvested after 1 h or 5 h, and lysates were analysed for the expression of the indicated proteins by Western blot.

NLRP3 inflammasome [2] = biological target: T1, NLRP3 inflammasome; experiment: Nigericin-induced IL-1β secretion in human PBMCs (ELISA); conditions: 10 μM 1 h before nigericin (5 μM), 5 h, FIG. 2C
Source text: as §1, §2, §3

Row | Compound | expression of the other Nrf2 complex proteins Keap1, Cul3, and Rbx1 (Nrf2) | stabilisation and nuclear accumulation of Nrf2 protein (Nrf2) | accumulation of mature IL-1β in the cells (lysate) (NLRP3 inflammasome [1]) | IL-1β secretion (NLRP3 inflammasome [1]) | IL-1β secretion (NLRP3 inflammasome [2]) | inflammasome inhibition by SFN with protein synthesis blocked by cycloheximide (NLRP3 inflammasome [1]; THP-1, CHX 30 μg/ml 1 h before SFN 10 μM, nigericin 5 μM 1 h later, 3.5 h, FIG. 2E) | dependence of inflammasome inhibition on Keap1 (NLRP3 inflammasome [1]; THP-1 cells with knockout of Keap1, 10 μM pretreatment, nigericin 5 μM, 3.5 h, FIG. 4H)
1 | CCCCCC=CC=C1C(=O)C=CC1CC=CCCCC(=O)O [15d-PGJ2, 15-deoxy-D-prostaglandin J2] | not affected | fast and robust stabilisation and nuclear accumulation of Nrf2 protein | mature IL-1β did not accumulate | inhibited IL-1β secretion | inhibited IL-1β secretion |  | 
2 | C[S+]([O-])CCCCN=C=S (stereo not drawn) [SFN, sulforaphane] | not affected | fast and robust stabilisation and nuclear accumulation of Nrf2 protein | mature IL-1β did not accumulate | inhibited IL-1β secretion | inhibited IL-1β secretion | did not prevent inflammasome inhibition | Keap1 independent
